Laboratory results taken from patent US10259779B2 (WAYNE STATE UNIVERSITY, priority 2016, dated 2019).

Legend:
HDAC6 = target: T1, HDAC6 (Homo sapiens, UniProt Q9UBN7); assay: ELISA-based HDAC activity assay, HDAC6; details: for HDAC6 fold selectivity HDAC1: HDAC6 over HDAC1; for HDAC6 fold selectivity HDAC1 / HDAC6 fold selectivity HDAC2 / HDAC6 fold selectivity HDAC3: calculated from IC50 values; for HDAC6 fold selectivity HDAC2: HDAC6 over HDAC2; for HDAC6 fold selectivity HDAC3: HDAC6 over HDAC3
T1 sequence (Q9UBN7 1-1215): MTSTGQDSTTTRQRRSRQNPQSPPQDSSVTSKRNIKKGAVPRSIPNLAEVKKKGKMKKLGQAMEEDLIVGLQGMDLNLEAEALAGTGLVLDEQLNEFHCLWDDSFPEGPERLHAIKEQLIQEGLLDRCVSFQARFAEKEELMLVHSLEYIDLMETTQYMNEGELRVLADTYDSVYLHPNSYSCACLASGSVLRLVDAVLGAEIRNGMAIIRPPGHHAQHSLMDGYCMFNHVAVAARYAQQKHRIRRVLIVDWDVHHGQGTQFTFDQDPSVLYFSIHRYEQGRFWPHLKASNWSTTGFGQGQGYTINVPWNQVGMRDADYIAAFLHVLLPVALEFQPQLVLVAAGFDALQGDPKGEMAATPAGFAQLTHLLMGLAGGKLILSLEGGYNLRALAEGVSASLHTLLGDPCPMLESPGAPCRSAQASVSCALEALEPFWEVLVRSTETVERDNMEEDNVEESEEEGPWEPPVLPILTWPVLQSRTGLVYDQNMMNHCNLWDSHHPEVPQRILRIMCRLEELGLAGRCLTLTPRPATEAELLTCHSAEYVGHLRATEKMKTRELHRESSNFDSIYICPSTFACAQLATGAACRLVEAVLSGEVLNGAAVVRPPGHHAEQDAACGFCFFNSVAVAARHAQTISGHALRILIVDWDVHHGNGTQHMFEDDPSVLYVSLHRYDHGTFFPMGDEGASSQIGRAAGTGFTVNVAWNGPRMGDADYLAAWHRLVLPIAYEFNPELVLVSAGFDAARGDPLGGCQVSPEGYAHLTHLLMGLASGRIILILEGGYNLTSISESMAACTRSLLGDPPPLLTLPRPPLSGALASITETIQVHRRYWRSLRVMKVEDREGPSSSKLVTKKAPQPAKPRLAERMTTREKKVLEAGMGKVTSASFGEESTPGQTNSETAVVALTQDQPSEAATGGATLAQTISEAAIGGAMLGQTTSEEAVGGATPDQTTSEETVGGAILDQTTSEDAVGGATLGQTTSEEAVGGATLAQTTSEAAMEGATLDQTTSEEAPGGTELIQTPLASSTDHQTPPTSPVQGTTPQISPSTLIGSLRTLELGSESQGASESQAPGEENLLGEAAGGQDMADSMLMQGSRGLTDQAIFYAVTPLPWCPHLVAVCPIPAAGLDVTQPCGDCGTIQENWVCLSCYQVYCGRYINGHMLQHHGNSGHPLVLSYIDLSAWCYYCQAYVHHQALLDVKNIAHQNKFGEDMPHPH

U937 cells = assay: In vitro cell growth inhibition, MTT assay, U937; format: cell-based; details: Homo sapiens, U-937, U937 cell line
in vitro = details: human, Jurkat cells (leukemia cell line)
[1] = system: acetyl-α-tubulin (HDAC6 substrate) in U937 cells; assay: In cellulo selectivity testing, western blot of acetyl-α-tubulin; format: cell-based; details: 18 hours, SAHA 5 μM, 1f 20-60 μM, compared to DMSO control
[2] = read-out: Deacetylase activity (%) HDAC6

IC50 (HDAC6) [µM]	HDAC6 fold selectivity HDAC1 (HDAC6) [fold]	HDAC6 fold selectivity HDAC2 (HDAC6) [fold]	HDAC6 fold selectivity HDAC3 (HDAC6) [fold]	activity at 0.05 µM (HDAC6; [2]) [%]	activity at 0.1 µM (HDAC6; [2]) [%]	activity at 0.2 µM (HDAC6; [2]) [%]	activity at 0.4 µM (HDAC6; [2]) [%]	activity at […] (HDAC6; [2]) [%]	EC50 (U937 cells) [µM]	activity at 5 µM (HDAC6; [2]) [%]	activity at 1.25 µM (HDAC6; [2]) [%]	Structure (SMILES)	viability at 44 h, 1 µM (in vitro) [%]	viability at 44 h, 10 µM (in vitro) [%]	levels of acetyl-α-tubulin (AcTub), western blot [1]
0.16 ± 0.01	28	31	38	74 ± 7	61 ± 6	43 ± 5	33 ± 3	80 ± 8	–	–	–	CCC(CCCC(=O)Nc1ccccc1)CCC(=O)NO (racemic) [Compound 1b, 4-ethyl-N^1-hydroxy-N^8-phenyloctanediamide]	–	–	–
0.14	210	270	300	76 ± 5	60 ± 4	45 ± 5	18 ± 4	90 ± 7	28	2.9 ± 0.5	–	O=C(CCC(CCCC(=O)Nc1ccccc1)Cc1ccccc1)NO (racemic) [Compound 1f, 4-benzyl-N^1-hydroxy-N^8-phenyloctanediamide]	89 ± 20	97 ± 4	dose-dependent increase
0.14 ± 0.01	250	270	210	75 ± 6	56 ± 4	42 ± 4	27 ± 2	77 ± 9	16	–	21 ± 2	CCCCCCC(CCCC(=O)Nc1ccccc1)CCC(=O)NO (racemic) [Compound 1d, 4-hexyl-N^1-hydroxy-N^8-phenyloctanediamide]	69 ± 4	39 ± 6	–
